Common to all, as to format: cell-based
One assay has as its system LNCaP cells. Nature of the assay: Assay on inhibitory activity for LNCaP cell proliferation (CCK-8). The following applies: 168 h incubation. Summed up: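 Cells seeded at 1×10^5 cells/mL in phenol red-free 1640 with 2% CSS-FBS, treated at final 10000 nM-0.61 nM in duplicate. After 168 h incubation, viability read with CCK-8.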
Another assay concerns the target T1, AR in LNCaP cells (Homo sapiens, UniProt P10275, T878A).
T1 construct: Assay on Degradation Activity for AR in LNCaP Cells; endogenous in cells; host or cells: LNCaP cells
T1 sequence (P10275 1-920 T878A): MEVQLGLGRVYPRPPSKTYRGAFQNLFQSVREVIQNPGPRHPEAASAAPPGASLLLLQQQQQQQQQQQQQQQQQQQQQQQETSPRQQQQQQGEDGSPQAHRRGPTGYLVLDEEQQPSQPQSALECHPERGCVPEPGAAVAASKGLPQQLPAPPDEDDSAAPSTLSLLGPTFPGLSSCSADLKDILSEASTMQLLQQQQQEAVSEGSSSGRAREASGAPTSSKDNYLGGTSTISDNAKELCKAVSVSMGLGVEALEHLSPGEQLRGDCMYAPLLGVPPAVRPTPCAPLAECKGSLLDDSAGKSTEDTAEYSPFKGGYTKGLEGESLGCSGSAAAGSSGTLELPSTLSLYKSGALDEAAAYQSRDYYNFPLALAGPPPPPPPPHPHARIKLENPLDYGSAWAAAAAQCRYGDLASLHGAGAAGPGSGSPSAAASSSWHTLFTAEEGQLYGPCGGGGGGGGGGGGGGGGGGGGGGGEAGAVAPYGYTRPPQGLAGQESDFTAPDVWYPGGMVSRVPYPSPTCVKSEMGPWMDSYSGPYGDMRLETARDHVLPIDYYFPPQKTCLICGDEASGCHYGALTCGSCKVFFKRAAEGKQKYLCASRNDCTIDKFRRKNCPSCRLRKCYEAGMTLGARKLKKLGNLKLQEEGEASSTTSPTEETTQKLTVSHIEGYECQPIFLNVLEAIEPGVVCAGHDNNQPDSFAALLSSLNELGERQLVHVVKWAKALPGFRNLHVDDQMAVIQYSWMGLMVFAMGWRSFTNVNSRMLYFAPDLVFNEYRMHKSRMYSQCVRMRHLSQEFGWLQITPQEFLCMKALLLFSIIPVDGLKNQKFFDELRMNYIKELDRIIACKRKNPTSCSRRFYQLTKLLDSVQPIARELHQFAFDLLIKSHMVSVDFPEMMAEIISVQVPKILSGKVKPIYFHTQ
Nature of the assay: Assay on degradation activity for AR in LNCaP cells (HTRF human androgen receptor detection kit). Conditions: 24 h incubation; for DC50: HTRF. The method, then: (§1) The detection was carried out using the HTRF HUMAN ANDROGEN RECEPTOR DETECTION KIT (cisbio, 64ANDRPEG), 4× Supplemented Lysis buffer was prepared using the Blocking reagent stock solution (100×) and Lysis buffer stock solution (4×), and 1× Supplemented Lysis buffer was prepared using the 4× Supplemented Lysis buffer and ddH2O. Premixed antibody solutions were prepared using Detection buffer, Androgen Receptor Eu Cryptate antibody, and Androgen Receptor d2 antibody.
(§2) LNCaP cells in a good growth state were taken, washed with PBS, digested with pancreatin, and added with 2% CSS—FBS phenol red-free 1640 complete medium to terminate the digestion. The cells were collected by using a centrifuge tube, adjusted to a cell density of 1×10^6 cells/mL, and seeded in a 96-well plate (100 μL/well). The cells were incubated overnight in a cell incubator. Compounds were added using a nanoliter pipettor such that the final concentrations of the compounds were 500 nM-0.488 nM. Two duplicate wells were set for each concentration, and meanwhile, a control was set. After another 24 h of incubation in the cell incubator, the medium was pipetted out, the 1× Supplemented Lysis buffer was added at 40 μL/well to lyse the cells. After the cells were oscillated for 40 min at room temperature, 16 μL of the cell lysate was added to a 384-well plate, the Premixed antibody solutions were added at 4 μL/well, and the mixture was left to stand at 25° C. for 2 h. Fluorescence values were detected at 665 nm/620 nm using an Envision microplate reader, the four-parameter analysis was performed, the dose-response curves were fit, and DC50 (the concentration of the drug when the degradation rate reaches 50%) and Dmax (the maximum degradation rate) were calculated.
In general terms: In TR-FRET formats the signal depends on donor and acceptor labels being close together.

A further assay relates to VCaP cells. Nature of the assay: Assay on inhibitory activity for VCaP cell proliferation (CCK-8). Conditions: 168 h incubation. Summed up:
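VCaP cells seeded at 1×10^5 cells/mL in phenol red-free DMEM with 5% charcoal-stripped FBS, treated in duplicate at 10000–0.61 nM final. After 168 h incubation, viability was read with CCK-8.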

For a further assay, the target named is T2, AR in VCaP cells (Homo sapiens, UniProt P10275).
T2 construct: Assay on Degradation Activity for AR in VCaP Cells; endogenous in cells; host or cells: VCaP cells
T2 sequence (P10275 1-920): T1 sequence (P10275 1-920 T878A) with A878T
Nature of the assay: Assay on degradation activity for AR in VCaP cells (HTRF human androgen receptor detection kit). Conditions: 24 h incubation. As for the experimental part: as §1
as §2, with “VCaP” for “LNCaP”, “DMEM” for “1640”, “µL/well).” for “μL/well).”, “1000 nM-0.977” for “500 nM-0.488”

Results on 13 molecules are retold here after patent US20260035384A1, “COMPOUND CONTAINING CYCLOHEXYL” (CHIA TAI TIANQING PHARMACEUTICAL GROUP CO., LTD., priority 2022, published 2026).

Substitutions are numbered along the chain they refer to. pIC50: −log10 of the molar value. Where only a bound is given, the exact number is not on record here.

A word on the pIC50: it is the IC50 on a negative log10 scale, so that one unit is a factor of ten. A higher pIC50 goes with a small IC50. What is called DC50 is the midpoint of the concentration-degradation curve. The Dmax is the greatest extent of degradation seen. Read a high Dmax as deep degradation.

For `N#Cc1ccc(O[C@H]2CC[C@H](NC(=O)c3ccc(N4CCC5(CC4)CC(CN4CCc6c(ccc7c(C8CCC(=O)NC8=O)noc67)C4)C5)nn3)CC2)cc1Cl` (some centres unmarked) [Compound 36], the pIC50 in the assay on LNCaP cells (Homo sapiens) was over 6.00; with VCaP cells (Homo sapiens), over 8.00. In addition, the DC50 is at most 20 nM on AR in LNCaP cells and at most 1 nM at AR in VCaP cells. On AR in LNCaP cells (maximum degradation rate), this molecule yielded a maximal degradation (Dmax) of over 80%.
As for `N#Cc1ccc(O[C@H]2CC[C@H](NC(=O)c3ccc(N4CCC5(CC4)CC(CN4CCc6ccc7c(C8CCC(=O)NC8=O)noc7c6CC4)C5)nn3)CC2)cc1Cl` (some centres unmarked) [Compound 37], the values for the negative-log IC50 (pIC50) with LNCaP cells (Homo sapiens) and in the assay on VCaP cells (Homo sapiens) were over 6.00 and over 7.00, respectively. Further, the DC50 at AR in LNCaP cells is at most 20 nM; on AR in VCaP cells, at most 1 nM. This molecule also returned a maximal degradation (Dmax) at AR in LNCaP cells (maximum degradation rate) of over 80%.
Consider `N#Cc1ccc(O[C@H]2CC[C@H](NC(=O)c3ccc(N4CCC(N5CC(CN6CCc7ccc8c(C9CCC(=O)NC9=O)noc8c7C6)C5)CC4)nn3)CC2)cc1Cl` (some centres unmarked) [Compound 91], for which the pIC50 with LNCaP cells (Homo sapiens) is over 6.00; with VCaP cells (Homo sapiens, VCaP, 168 h), over 8.00. In addition, the DC50 on AR in LNCaP cells is at most 20 nM; at AR in VCaP cells it was at most 1 nM. The same molecule had a Dmax on AR in LNCaP cells (maximum degradation rate) of over 80%.
In the case of `N#Cc1ccc(O[C@H]2CC[C@H](NC(=O)c3ccc(N4CCC(N5CC(N6Cc7ccc8c(C9CCC(=O)NC9=O)coc8c7C6)C5)CC4)nn3)CC2)cc1Cl` (some centres unmarked) [Compound 96], the pIC50 in the assay with LNCaP cells (Homo sapiens) is over 6.00; in the assay on VCaP cells (Homo sapiens, VCaP, 168 h), over 8.00. The molecule further displayed a DC50 at AR in VCaP cells of at most 1 nM.
Take `N#Cc1ccc(O[C@H]2CC[C@H](NC(=O)c3ccc(N4CCC(N5CC(CN6Cc7ccc8c(C9CCC(=O)NC9=O)coc8c7C6)C5)CC4)nn3)CC2)cc1Cl` (some centres unmarked) [Compound 98]: the pIC50 is over 6.00 in the assay on LNCaP cells (Homo sapiens) and over 7.00 in the assay on VCaP cells (Homo sapiens, VCaP, 168 h). The DC50 on AR in LNCaP cells is at most 20 nM; at AR in VCaP cells, at most 1 nM. Also, the greatest degradation seen (Dmax) on AR in LNCaP cells (maximum degradation rate) was over 80%.
For the molecule `N#Cc1ccc(O[C@H]2CC[C@H](NC(=O)c3ccc(N4CCC(CN5CC(CN6Cc7cc8onc(C9CCC(=O)NC9=O)c8cc7C6)C5)CC4)nn3)CC2)cc1Cl` (some centres unmarked) [Compound 102], the negative-log IC50 (pIC50) was over 6.00 in the assay with LNCaP cells (Homo sapiens) and over 8.00 in the assay on VCaP cells (Homo sapiens, VCaP, 168 h). For the same molecule, the DC50 on AR in LNCaP cells is at most 20 nM; on AR in VCaP cells it was at most 1 nM. For the same molecule, the Dmax on AR in LNCaP cells (maximum degradation rate) is over 80%.
For `N#Cc1ccc(O[C@H]2CC[C@H](NC(=O)c3ccc(N4CCN(C5CN(CC6Cc7ccc8c(C9CCC(=O)NC9=O)coc8c7C6)C5)CC4)nn3)CC2)cc1Cl` (some centres unmarked) [Compound 107], in that order: over 6.00, over 8.00, at most 20 nM, at most 1 nM and over 80%.
Regarding `N#Cc1ccc(O[C@H]2CC[C@H](NC(=O)c3ccc(N4CCN(C5CN(CC6Cc7ccc8c(C9CCC(=O)NC9=O)coc8c7C6)C5)CC4)nn3)CC2)cc1Cl` (some centres unmarked) [Compound 108], the figures for the negative-log IC50 (pIC50) with LNCaP cells and with VCaP cells were over 6.00 and over 8.00, respectively. At AR in VCaP cells, this molecule returned a 50% degradation concentration (DC50) of at most 1 nM.
For `N#Cc1ccc(O[C@H]2CC[C@H](NC(=O)c3cnc(N4CCN(C5CN(CC6Cc7ccc8c(C9CCC(=O)NC9=O)coc8c7C6)C5)CC4)nc3)CC2)cc1Cl` (some centres unmarked) [Compound 109], the negative-log IC50 (pIC50) in the assay with LNCaP cells (Homo sapiens) was over 6.00; with VCaP cells (Homo sapiens, VCaP, 168 h), over 7.00. Further, the DC50 at AR in LNCaP cells is at most 20 nM; on AR in VCaP cells, at most 1 nM. The molecule also returned a Dmax at AR in LNCaP cells (maximum degradation rate) of over 80%.
With `N#Cc1ccc(O[C@H]2CC[C@H](NC(=O)c3cnc(N4CCN(C5CN(CC6Cc7ccc8c(C9CCC(=O)NC9=O)coc8c7C6)C5)CC4)nc3)CC2)cc1Cl` (some centres unmarked) [Compound 110], the results for the negative-log IC50 (pIC50) with LNCaP cells and in the assay with VCaP cells were over 6.00 and over 7.00, respectively. For the same molecule, the DC50 at AR in LNCaP cells is at most 20 nM; on AR in VCaP cells, at most 1 nM. Further, the “Degradation activity for AR in LNCaP cells (Dmax, %)” value on AR in LNCaP cells (maximum degradation rate) is given as over 80%.
As to `CN(c1ccc(C#N)c(Cl)c1)[C@H]1CC[C@H](NC(=O)c2ccc(N3CC(CN4CCc5c(ccc6c(C7CCC(=O)NC7=O)noc56)C4)C3)cc2)CC1` (some centres unmarked) [Compound 113], the pIC50 was over 6.00 in the assay with LNCaP cells (Homo sapiens) and over 7.00 with VCaP cells (Homo sapiens). At AR in VCaP cells, this molecule registered a half-maximal degradation concentration (DC50) of at most 1 nM.
Turning to `CN(c1ccc(C#N)c(Cl)c1)[C@H]1CC[C@H](NC(=O)c2cnc(N3CCC(CN4CCc5c(ccc6c(C7CCC(=O)NC7=O)noc56)C4)CC3)nc2)CC1` (some centres unmarked) [Compound 117], the pIC50 was over 6.00 with LNCaP cells (Homo sapiens) and over 7.00 in the assay on VCaP cells (Homo sapiens). Besides, the half-maximal degradation concentration (DC50) on AR in LNCaP cells was at most 20 nM; on AR in VCaP cells it was at most 1 nM. In addition, at AR in LNCaP cells (maximum degradation rate), the Dmax was over 80%.
Regarding `CN(c1ccc(C#N)c(Cl)c1)[C@H]1CC[C@H](NC(=O)c2ccc(N3CCC(CN4CCc5c(ccc6c(C7CCC(=O)NC7=O)noc56)C4)CC3)nn2)CC1` (some centres unmarked) [Compound 118], the negative-log IC50 (pIC50) is over 6.00 in the assay on LNCaP cells (Homo sapiens) and over 7.00 in the assay with VCaP cells (Homo sapiens). Further, the figures for the DC50 at AR in LNCaP cells and at AR in VCaP cells were at most 20 nM and at most 1 nM, respectively. Further, on AR in LNCaP cells (maximum degradation rate), the greatest degradation seen (Dmax) was over 80%.
